This is an account of results in PMC4343023, “Selectivity of odorant-binding proteins from the southern house mosquito tested against physiologically relevant ligands” (Frontiers in Physiology, 2015).

For test [1], the target named is T1, CquiOBP1 (Culex quinquefasciatus, UniProt Q8T6I2). Put plainly: biochemical. The test is classed as binding. The conditions noted are these: for Int (fluorescence emission): residual NPN fluorescence, normalized to 100 prior to ligand, screen at 2–20 μM ligand. As to the method: (§1) Binding affinity (Ban et al., [2002]) was tested with a panel of 34 compounds, including attractants, a mosquito oviposition pheromone, repellents, terpenoids and other putative mosquito attractants or repellents. Unless otherwise specified, they were purchased from Sigma-Aldrich/Fluka/Acros (St. Louis, MO). Repellents: DEET (N,N-diethyl-3-methylbenzamide), PMD (p-mentan-3,8-diol) (Bedoukian Research, Inc.), picaridin (butan-2-yl 2-(2-hydroxyethyl)piperidine-1-carboxylate), IR3535 (ethyl 3-[acetyl(butyl)amino]propanoate) (gifts from Dr. Kamal Chauhan, USDA, ARS, Beltsville), (±)-citronellal, and ethyl 2-phenylacetate. Oviposition attractants: (5R,6S)-6-acetoxy-5-hexadecanolide, MOP (Bedoukian Research, Inc.), skatole, indole, 4-methylphenol, and 4-ethylphenol. Human derived compounds: nonanal, 6-methyl-5-hepten-2-one (sulcatone). Terpenoids and other putative attractants/repellents: linalool, linalool oxide, eucalyptol, camphor, fenchone, thujone, geranyl acetate, eugenol, (Z)-3-hexenyl acetate, 1-octen-3-ol, 1-octyn-3-ol, 3-octanol, 1-hexanol, methylcyclohexanol, methyl salicylate, cyclohexanone, acetophenone, benzaldehyde, 3,5-dimethoxybenzene, 1,2-dimethoxybenzene, and 2-phenylethanol.
(§2) Fluorescence spectra were recorded in a right angle configuration on a spectrofluorimeter (RF-5301, Shimadzu, Kyoto, Japan) at room temperature using a 1 cm light path fluorimeter quartz cuvette. Slit widths of 10 nm were selected for both excitation and emission. N-phenyl-1-naphthylamine (NPN, or 1-NPN) (Ban et al., [2002]) was dissolved in methanol to yield a 1 mM stock solution. The binding affinity for NPN was determined by adding aliquots of NPN into a 10 μg/ml (microgram) protein sample. NPN was excited at 337 nm and emission spectra were recorded at high speed scanning between 350 and 500 nm. All ligands used in competition experiments were dissolved in spectrophotometric grade methanol. Binding data were collected in three independent measurements. Bound ligand was evaluated from fluorescence intensity assuming that the protein was 100% active, with a stoichiometry of 1:1 (protein: ligand) at saturation. The KNPN values were estimated using Prism 5 (GraphPad Software, Inc., La Jolla, CA) by non-linear regression for a unique site of binding. The curves were linearized using Scatchard plots. Dissociation constants of the competitors were calculated according to Campanacci et al. ([2001]) from the corresponding IC50 values in the equation: Kdiss = [IC50]/1+[NPN]/KNPN, where [NPN] is the free concentration of NPN and KNPN is the dissociation constant of the complex protein/NPN.

A further test has as its target CquiOBP2 (Culex quinquefasciatus, UniProt C7BDZ6). Put plainly: biochemical. In kind it is binding. The note with it: for Int (fluorescence emission): residual NPN fluorescence, normalized to 100 prior to ligand, screen at 2–20 μM ligand. As to the method:
as §1, §2

For a further test, the target named is CquiOBP5 (Culex quinquefasciatus, UniProt C7BDZ9). The test is described as follows: biochemical. The conditions noted are these: for Int (fluorescence emission): residual NPN fluorescence, normalized to 100 prior to ligand, screen at 2–20 μM ligand. The test is classed as binding. How it is done:
as §1, §2

The target of test [2] is T1, CquiOBP1. Put plainly: pH-dependent binding assay. The note with it: CquiOBP1-NPN quenching by ligand, pH 4.5 to 8, 4PL fit. As to the method:
To investigate the effects of pH on CquiOBP1–ligand complexes, fluorescence binding assay was measured between CquiOBP1 and three best ligands at different pH values. Buffer were prepared into two different ways: starting from 1M phosphate buffer, pH 4, pH was increased and adjusted by adding sodium hydroxide. Then protein was added to make a solution at each tested pH from 4.5 to 8. Experiments were repeated starting from pH 8 and lowering the pH by adding hydrochloric acid. Each tested solution had 200 mM buffer and 10 μg/ml (microgram) of CquiOBP1. As there were no significant differences in fluorescence data generated at a certain pH regardless of having the pH raised by adding NaOH or lowered by addition of HCl, data were pooled for subsequent analysis.
The pH of the midpoint transitions was obtained by non-linear fitting, sigmoidal with an equation for four-parameter logistic (4PL) of curve segments between the lowest and highest decrease in fluorescence (the rising part of each curve). The pH values calculated for the midpoint transitions with MOP, picaridin, and nonanal were 6.3, 5.8, and 5.5, respectively. Although the pH at the surface of dendritic membrane is not known, it is predicted that too low midpoint transition may lead to odorants being trapped in OBPs and not being properly delivered. In short, the acidity at the surface of the membrane may not be enough to trigger release of a ligand with too low midpoint transition pH. By considering only the dissociation constants obtained by in vitro binding assays (Table 1), one could reasonably argue that CquiOBP1 is involved in reception of nonanal. […] Next, we compared how these ligands would interact with CquiOBP1.

In test [3] the test system is Mosquitoes with reduced transcripts of CquiOBP1. Also noted: method as in Pelletier et al., 2010. The conditions noted are these: ref Pelletier et al., 2010; cited from earlier work.
In the next test the test system is AaegOBP1. Also noted: method as in Leal and Leal, 2015. The note with it: ref Leal and Leal, 2015; cited from earlier work.
The next test relates to AgamOBP1. Set-up: method as in Biessmann et al., 2010. The conditions noted are these: ref Biessmann et al., 2010; cited from earlier work.
A further test has as its system AfunOBP1. Set-up: method as in Xu et al., 2010. The conditions noted are these: panel of EAG-active compounds; ref Xu et al., 2010; cited from earlier work.
Setting [4] is: CquiOBP1, NPN displacement titration, read-out: IC50.
Setting [5] is: CquiOBP1, calculated from IC50 of NPN displacement, read-out: Kd.
[6] abbreviates: CquiOBP2, NPN displacement titration, read-out: IC50.
Where [7] appears, read: CquiOBP2, calculated from IC50 of NPN displacement, read-out: Kd.
The mark [8] stands for this setting: CquiOBP5, NPN displacement titration, read-out: IC50.
[9] abbreviates: CquiOBP5, calculated from IC50 of NPN displacement, read-out: Kd.

SMILES strings stand for the structures. Where two headings read alike, the source gives them in different places. Bounds are passed on as bounds.

Chain of CquiOBP5 (C7BDZ9 entry or part of it): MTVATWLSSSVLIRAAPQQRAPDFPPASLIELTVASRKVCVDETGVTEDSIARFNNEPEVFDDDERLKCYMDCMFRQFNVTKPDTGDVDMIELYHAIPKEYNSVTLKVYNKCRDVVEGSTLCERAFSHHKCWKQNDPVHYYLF
T1 sequence (Q8T6I2 entry or part of it): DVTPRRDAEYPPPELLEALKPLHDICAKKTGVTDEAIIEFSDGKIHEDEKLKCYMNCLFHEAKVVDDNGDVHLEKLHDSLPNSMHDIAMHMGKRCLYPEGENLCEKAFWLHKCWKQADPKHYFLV
Chain of CquiOBP2 (C7BDZ6 entry or part of it): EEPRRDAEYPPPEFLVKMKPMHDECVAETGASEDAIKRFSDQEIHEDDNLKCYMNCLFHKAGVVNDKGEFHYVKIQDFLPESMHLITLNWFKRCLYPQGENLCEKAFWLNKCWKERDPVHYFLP

Consider `CCCCCCCCC=O` [Nonanal, nonanal], for which the IC50 on CquiOBP1 [1] (setting [4]) is 10.5 µM; at CquiOBP2 (setting [6]), > 10 µM; at CquiOBP5 (setting [8]) it was 8.3 µM. Further, the Kd at CquiOBP1 [1] (setting [5]) is 6.6 µM; at CquiOBP2 (setting [7]), > 2.5 µM; on CquiOBP5 (setting [9]) it was 5.8 µM. Further, the “Int (fluorescence emission)” value on CquiOBP1 [1] (CquiOBP1) turned out to be 51.4; at CquiOBP2 (CquiOBP2) it was 87; at CquiOBP5 (CquiOBP5) it was 46.5. Further, at CquiOBP1 [2], the “pH of the midpoint transition” value is listed as 5.5. In test [3], the “EAG responses, knockdown vs wild type” value is recorded as “not significantly different”.
With `CCCCCCCCCC[C@H](OC(C)=O)[C@H]1CCCC(=O)O1` [MOP, (5R,6S)-6-acetoxy-5-hexadecanolide], the IC50 at CquiOBP1 [1] (setting [4]) is 8.4 µM; on CquiOBP2 (setting [6]), > 10 µM; on CquiOBP5 (setting [8]), 10.3 µM. In addition, the results for the dissociation constant (Kd) on CquiOBP1 [1] (setting [5]), on CquiOBP2 (setting [7]) and on CquiOBP5 (setting [9]) were 5.3 µM, > 2.5 µM and 7.2 µM, respectively. Further, the “Int (fluorescence emission)” value on CquiOBP1 [1] (CquiOBP1) is recorded as 48; at CquiOBP2 (CquiOBP2) it was 86; on CquiOBP5 (CquiOBP5), 52. For the same compound, on CquiOBP1 [1] (in vitro, NPN displacement), the “binding to CquiOBP1 (in words)” value is “bound”. The “binding to CquiOBP2 (in words)” value on CquiOBP2 (in vitro, NPN displacement) is given as “cannot displace NPN”. Further, at CquiOBP5 (in vitro, NPN displacement), the “binding to CquiOBP5 (in words)” value was “bound”. On CquiOBP1 [2], the “pH of the midpoint transition” value was found to be 6.3. Moreover, the “binding to AaegOBP1” value in the test with AaegOBP1 was “bound”. In addition, the “EAG responses, knockdown vs wild type” value in test [3] is on record as “significant lower”.
With `CCC(C)OC(=O)N1CCCCC1CCO` (centres unmarked) [Picaridin, butan-2-yl 2-(2-hydroxyethyl)piperidine-1-carboxylate], the IC50 against CquiOBP1 [1] was 10.2 µM; on CquiOBP2 it was > 10 µM; at CquiOBP5 it was 7.9 µM. Moreover, the results for the dissociation constant Kd on CquiOBP1 [1], at CquiOBP2 and at CquiOBP5 were 6.4 µM, > 2.5 µM and 5.6 µM, respectively. Further, the “Int (fluorescence emission)” value is 51 at CquiOBP1 [1] (CquiOBP1), 77 at CquiOBP2 (CquiOBP2) and 45 at CquiOBP5 (CquiOBP5). In addition, the “pH of the midpoint transition” value at CquiOBP1 [2] is on record as 5.8.
With `c1ccc2[nH]ccc2c1` [Indole, indole], the IC50 at CquiOBP1 [1] (setting [4]), at CquiOBP2 (setting [6]) and at CquiOBP5 (setting [8]) was > 10 µM in each case. Further, the Kd on CquiOBP1 [1] (setting [5]) was > 6.3 µM; at CquiOBP2 (setting [7]) it was > 2.5 µM; at CquiOBP5 (setting [9]), > 7 µM. The “Int (fluorescence emission)” value at CquiOBP1 [1] (CquiOBP1) is on record as 86; on CquiOBP2 (CquiOBP2) it was 87; at CquiOBP5 (CquiOBP5), 80. Besides, the “binding to AgamOBP1” value in the test on AgamOBP1 is on record as “selectively bind”.
For the compound `CCCCCCCCCC(C)=O` [2-undecanone], the “binding to AfunOBP1” value in the test on AfunOBP1 is given as “best ligand”.
Take `CC1CCC(O)CC1` (centres unmarked) [4-Methylcyclohexanol]: the IC50 on CquiOBP1 [1] (setting [4]), on CquiOBP2 (setting [6]) and on CquiOBP5 (setting [8]) was > 10 µM in each case. Also, the Kd was > 6.3 µM at CquiOBP1 [1] (setting [5]), > 2.5 µM at CquiOBP2 (setting [7]) and > 7 µM on CquiOBP5 (setting [9]). Further, the “Int (fluorescence emission)” value is on record as 88 at CquiOBP1 [1] (CquiOBP1), 88 on CquiOBP2 (CquiOBP2) and 93 on CquiOBP5 (CquiOBP5).
Turning to `Cc1ccc(O)cc1` [4-Methylphenol, 4-methylphenol], the IC50 on CquiOBP1 [1] (setting [4]), on CquiOBP2 (setting [6]) and on CquiOBP5 (setting [8]) was > 10 µM throughout. In addition, the Kd at CquiOBP1 [1] (setting [5]) was > 6.3 µM; at CquiOBP2 (setting [7]) it was > 2.5 µM; at CquiOBP5 (setting [9]), > 7 µM. Moreover, the figures for the “Int (fluorescence emission)” value at CquiOBP1 [1] (CquiOBP1), on CquiOBP2 (CquiOBP2) and at CquiOBP5 (CquiOBP5) were 73, 85 and 90, respectively.
Turning to `O=Cc1ccccc1` [Benzaldehyde, benzaldehyde], the IC50 on CquiOBP1 [1], against CquiOBP2 and on CquiOBP5 was > 10 µM throughout. Also, the Kd on CquiOBP1 [1] was > 6.3 µM; on CquiOBP2, > 2.5 µM; at CquiOBP5 it was > 7 µM. Moreover, the “Int (fluorescence emission)” value at CquiOBP1 [1] (CquiOBP1) worked out at 83; on CquiOBP2 (CquiOBP2), 91; on CquiOBP5 (CquiOBP5), 93.
On to `OCCc1ccccc1` [2-Phenylethanol, 2-phenylethanol], for which the concentration for half-maximal inhibition (IC50) at CquiOBP1 [1] (setting [4]), on CquiOBP2 (setting [6]) and on CquiOBP5 (setting [8]) was > 10 µM in each case. Further, the equilibrium dissociation constant (Kd) was > 6.3 µM at CquiOBP1 [1] (setting [5]), > 2.5 µM at CquiOBP2 (setting [7]) and > 7 µM on CquiOBP5 (setting [9]). The results for the “Int (fluorescence emission)” value at CquiOBP1 [1] (CquiOBP1), on CquiOBP2 (CquiOBP2) and on CquiOBP5 (CquiOBP5) were 91, 92 and 95, respectively.
As to `CC(=O)CCC=C(C)C` [Sulcatone, 6-methyl-5-hepten-2-one], the IC50 against CquiOBP1 [1], on CquiOBP2 and at CquiOBP5 was > 10 µM in each case. Further, the equilibrium dissociation constant (Kd) on CquiOBP1 [1] was > 6.3 µM; at CquiOBP2, > 2.5 µM; on CquiOBP5, > 7 µM. Also, the entries for the “Int (fluorescence emission)” value at CquiOBP1 [1] (CquiOBP1), at CquiOBP2 (CquiOBP2) and on CquiOBP5 (CquiOBP5) were 87, 84 and 66, respectively.
